How the values were obtained:
MDAMB231 [1] = assay: Soft agar colony-formation assay, breast cancer; assay type: cell-based
Method: (§1) The Soft Agar Colony-formation Assay is an anchorage-independent growth assay in soft agar, which is one of the most stringent assays for detecting malignant transformation of cells. For this assay, malignant cells are cultured with appropriate controls in soft agar medium for 1-2 weeks. Following this incubation period, formed colonies can either be analyzed morphologically using cell stain and quantifying the number of colonies formed.
(§2) Briefly, for Soft Agar Assay a mixture of 50 ul of 2× medium (taken appropriately as per cell line) and 50 ul of 1.2% Bacto Agar were plated on to each well of 96 well micro titer assay plate. 10 ul of cells (of specific plating efficiency pre standardized for respective cell line) were mixed with 20 ul of 2× medium and 30 ul of 0.8% of Bacto Agar and 1.6 ul of drug (of appropriate concentration) in a vial and transferred to the solidified pre layers of the assay plates. The cells were then allowed to grow and form colonies at 37° C. and 5% CO2 for 1 week. An intermittent feeding with 50 ul of appropriate 2× medium was performed after 3 days of experimental set up. 16 ul of Alamar Blue (1.5 mg/ml) was then added to all the wells to quantify the developed colonies. The plates were incubated for 24 hrs at 37° C. Absorbance was then measured at 630 nm. XY graph of log Percent viability was then plotted against log drug concentration.
(§3) Following plating efficiencies were standardized for Soft Agar Assay: […]

MDAMB231 [2] = assay: In vitro sphere-forming assay (cancer stem cells), Mammosphere media; conditions: for 3D sphere count of MDAMB231: Mammosphere media, 2000 cells/well, n = 6 ± S.D
Human lymphocytes = assay: Lymphocyte assay (MTT on normal cells); assay type: cell-based; conditions: Lymphocyte; human peripheral blood lymphocytes, MTT procedure
Method: Human lymphocytes were isolated from the peripheral blood. A pure population of lymphocytes was obtained based on differential centrifugation, in which diluted defibrinated blood was layered on a solution of sodium diatrizoate and polysucrose (HiSep LSM 1077) and centrifuged at low speeds for 30 mins.
Procedure: The separation of lymphocytes from fresh defibrinated blood was performed by the procedure described below: • 1. Diluted defibrinated fresh blood was overlaid gradually on (HiSeP LSM1077) and centrifuged at low speed for 30 mins. • 2. The lymphocyte layer (the buffy coat) was carefully removed in a new collection tube. • 3. The buffy coat was given another wash, by the diluent buffer Dulbecco's phosphate buffered saline (D.P.B.S) • 4. The supernatant was discarded and the pellet was resuspended in D.P.B.S. • 5. The viability of cells was checked by Haemocytometer. • 6. Cells with purity and viability of more than 95% were taken for the experiment. • 7. Purified lymphocytes were diluted at a concentration of 0.7 million/ml with sterile D.P.B.S and MTT procedure was performed exactly as described earlier.

PC3 [3] = assay: In vitro sphere-forming assay (cancer stem cells), Prostosphere media; conditions: for 3D sphere count of PC3: Prostosphere media, 2000 cells/well, n = 6 ± S.D
PC3 [4] = assay: Soft agar colony-formation assay, prostate cancer; assay type: cell-based
Method: as §1, §2, §3

PC3 [5] = assay: In vitro antiproliferative assay (MTT assay), prostate cancer cell line; assay type: cell-based; conditions: Homo sapiens, PC-3, 48 h, MTT assay, prostate cancer PC3, 48 hrs drug incubation
Method: (§4) MTT assay is a simple and sensitive assay where, metabolic reducing activity of the cells is measured. The increase of this activity in time is taken as a parameter of cell growth. If treatment with a drug impairs this increase, the action is a consequence of growth inhibition, cell killing or both. […] All cell lines were cultured in a 37° C. incubator with a 5% CO2 environment. Compounds were dissolved in DMSO with a concentration of 0.1M (stock solution). Cells were seeded into 96-well plates at suitable plating efficiency.
(§5) Following plating efficiencies were standardized for MTT assay:
(§6) In the MTT procedure, the cells were plated in 96 well plates as per predetermined plating efficiency (Table1). The plates were then incubated for 24 hrs in 5% CO2 atmosphere at 37° C. Appropriate concentrations of the drugs were then added to the plate and further incubation was carried out for 48 hrs (in 5% CO2 atmosphere at 37° C.). The assay plate was then centrifuged twice at 3000 rpm for 3 mins and supernatant was then discarded. 100 ul of MTT solution (0.5 mg/ml) was then added to each well of the plate and it was further incubated for 4 hrs (in 5% CO2 atmosphere at 37° C.) Following 4 hr incubation, the plate was then centrifuged twice, and supernatant was aspirated off very carefully. 200 ul of DMSO was then added to each well to solubilize. MTT crystals and mixed well by shaking the plate. XY graph of log percent viability was then plotted against log drug concentration.

MDAMB231 [6] = assay: In vitro antiproliferative assay (MTT assay), breast cancer cell line; assay type: cell-based; conditions: Homo sapiens, MDA-MB-231, 48 h, MTT assay, breast cancer MDAMB231, 48 hrs drug incubation
Method: as §4, §5, §6

[7] = Homo sapiens, MDA-MB-231, read-out: % Viability of spheres (MDAMB231)
[8] = Homo sapiens, PC-3, read-out: % Viability of spheres (PC3)

Row | SMILES | viability at 0.0025 µM (MDAMB231 [2]; [7]) [%] | viability at 0.025 µM (MDAMB231 [2]; [7]) [%] | viability at 0.25 µM (MDAMB231 [2]; [7]) [%] | viability at 2.5 µM (MDAMB231 [2]; [7]) [%] | viability at 25 µM (MDAMB231 [2]; [7]) [%] | 3D sphere count of MDAMB231 (MDAMB231 [2]; drug 0.025 uM) | 3D sphere count of MDAMB231 (MDAMB231 [2]; drug 0.25 uM) | 3D sphere count of MDAMB231 (MDAMB231 [2]; drug 2.5 uM) | 3D sphere count of MDAMB231 (MDAMB231 [2]; drug 25 uM) | IC50 (Human lymphocytes) [µM] | viability at 0.025 µM (PC3 [3]; [8]) [%] | viability at 0.25 µM (PC3 [3]; [8]) [%] | viability at 2.5 µM (PC3 [3]; [8]) [%] | viability at 25 µM (PC3 [3]; [8]) [%] | 3D sphere count of PC3 (PC3 [3]; drug 0.025 uM) | 3D sphere count of PC3 (PC3 [3]; drug 0.25 uM) | 3D sphere count of PC3 (PC3 [3]; drug 2.5 uM) | 3D sphere count of PC3 (PC3 [3]; drug 25 uM) | IC50 (PC3 [5]) [µM] | IC50 (MDAMB231 [6]) [µM] | also measured
1 | O=C1C=C(OCCCCCCN2CCOCC2)C(=O)c2ccccc21 [Formula 68] | 62 | 53 | 47 | 39 | 32 | 47(±2) | 39(±3) | 33(±2) | 27(±2) | 5.58 | 55 | 41 | 31 | 24 | 48(±3) | 36(±3) | 27(±2) | 21(±2) | 4.73 | 3.18 | anticancer activity in comparison with cisplatin, soft agar, breast cancer cell line (MDAMB231 [1]; FIG. 51, MDAMB231): higher anticancer activity in comparison with cisplatin; IC50 (MDAMB231 [1]; Homo sapiens, MDA-MB-231, 168 h, Soft Agar Assay, 1 week, Alamar Blue): 2.37 µM; 3D sphere count of MDAMB231 (MDAMB231 [2]; drug 0.0025 uM): 54(±2); viability at 0.0025 µM (PC3 [3]; [8]): 62%; 3D sphere count of PC3 (PC3 [3]; drug 0.0025 uM): 54(±4); anticancer activity in comparison with cisplatin, soft agar, prostate cancer cell line (PC3 [4]; FIG. 52, PC3): higher anticancer activity in comparison with cisplatin; IC50 (PC3 [4]; Homo sapiens, PC-3, 168 h, Soft Agar Assay, 1 week, Alamar Blue): 2.53 µM
2 | O=C1C(c2ccc3c(c2)OCO3)=CC(=O)c2c(OCCCC(=O)N3CCOCC3)cccc21 [Formula 69] | 86 | 70 | 57 | 35 | 19 | 58(±3) | 47(±3) | 29(±3) | 16(±2) | 12.1 | 65 | 49 | 35 | 21 | 53(±3) | 40(±2) | 29(±2) | 17(±3) | 2.12 | 2.75 | 3D sphere count of MDAMB231 (MDAMB231 [2]; drug 0.0025 uM): 71(±3); viability at 0.0025 µM (PC3 [3]; [8]): 93%; 3D sphere count of PC3 (PC3 [3]; drug 0.0025 uM): 76(±3)
3 | O=C1C(c2ccc3c(c2)OCO3)=CC(=O)c2c(OCCN3CCOCC3)cccc21 [Formula 1, 5-(2-morpholinoethoxy)-2-(benzo[d][1,3]dioxol-6-yl)naphthalene-1,4-dione] | – | 83 | 62 | 44 | 31 | 64(±5) | 48(±4) | 34(±4) | 24(±4) | 1.49 | 80 | 62 | 45 | 30 | 65(±3) | 51(±3) | 37(±3) | 25(±3) | 0.579 | 0.656 | viability at 250 µM (MDAMB231 [2]; [7]): 13%; 3D sphere count of MDAMB231 (MDAMB231 [2]; drug 250 uM): 10(±2); viability at 250 µM (PC3 [3]; [8]): 16%; 3D sphere count of PC3 (PC3 [3]; drug 250 uM): 13(±3)
